Reference: US20220259202A1, “1-(4-(AMINOMETHYL)BENZYL)-2-BUTYL-2H-PYRAZOLO[3,4-C]QUINOLIN-4-AMINE DERIVATIVES AND RELATED COMPOUNDS AS TOLL-LIKE RECEPTOR (TLR) 7/8 AGONISTS, AS WELL AS ANTIBODY DRUG CONJUGATES THEREOF FOR USE IN CANCER THERAPY AND DIAGNOSIS” (SUTRO BIOPHARMA, INC., priority 2019, published 2022)

Legend:
Test in all cases: HEK293 SEAP reporter assay, other TLRs (Biological Example 3)
Assay type in all cases: cell-based
Conditions in all cases: 16 hrs, up to 1 μM
human TLR3 = molecular target: T1, human TLR3 (Homo sapiens, UniProt O15455)
T1 construct: host or cells: HEK293
T1 sequence (O15455 24-904): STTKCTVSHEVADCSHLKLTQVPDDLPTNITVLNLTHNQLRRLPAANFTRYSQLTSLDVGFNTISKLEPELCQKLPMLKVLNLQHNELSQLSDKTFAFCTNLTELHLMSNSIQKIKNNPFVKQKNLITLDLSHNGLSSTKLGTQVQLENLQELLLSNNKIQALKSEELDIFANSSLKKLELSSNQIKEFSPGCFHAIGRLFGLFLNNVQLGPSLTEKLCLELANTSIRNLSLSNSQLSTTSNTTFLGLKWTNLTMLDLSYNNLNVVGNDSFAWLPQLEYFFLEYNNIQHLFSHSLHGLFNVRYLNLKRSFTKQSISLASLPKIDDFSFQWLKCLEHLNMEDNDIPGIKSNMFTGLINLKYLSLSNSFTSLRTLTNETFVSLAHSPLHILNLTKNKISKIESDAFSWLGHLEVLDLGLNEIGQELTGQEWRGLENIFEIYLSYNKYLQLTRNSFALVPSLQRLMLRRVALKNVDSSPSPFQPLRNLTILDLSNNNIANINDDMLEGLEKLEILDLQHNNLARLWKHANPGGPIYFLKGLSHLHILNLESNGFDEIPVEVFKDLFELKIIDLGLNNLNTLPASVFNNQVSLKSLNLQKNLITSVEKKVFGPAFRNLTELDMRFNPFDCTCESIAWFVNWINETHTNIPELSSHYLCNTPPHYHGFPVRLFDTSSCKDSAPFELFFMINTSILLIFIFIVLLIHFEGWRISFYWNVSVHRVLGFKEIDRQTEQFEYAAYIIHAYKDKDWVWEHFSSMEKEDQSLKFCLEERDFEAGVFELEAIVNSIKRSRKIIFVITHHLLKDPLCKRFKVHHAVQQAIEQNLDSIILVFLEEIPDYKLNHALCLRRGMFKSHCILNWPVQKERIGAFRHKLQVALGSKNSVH
From the text: (§1) In this example, the activity of the Compound 1 to stimulate different human and mouse TLR pathways was investigated on HEK293 cells transfected with inducible SEAP (secreted embryonic alkaline phosphatase) reporter genes and also expressing different human TLRs (TLR2, TLR3, TLR4, TLR5, TLR7, TLR8, TLRS) or mouse TLRs (TLR2, TLR3, TLR4, TLR5, TLR7, TLR8, TLR13). Compound A
(§2) HEK293 reporter cell lines were purchased from Invivogen and cell lines were maintained in manufacture recommended culture medium with required supplemental antibiotics. On the day of assay, the cells were harvested with Accutase and counted by the Vi-CELL Cell Viability Analyzers. Cells were re-suspended in HEK blue detection medium and a total of 10000 cells were seeded in each well of a 384-well flat bottom plate. […] Assay plates were cultured at 37° C. in a CO2 incubator for 16 hrs. HEK-Blue™ Detection medium changes to a purple/blue color in the presence of secreted SEAP, which can be detected by spectrophotometry at 620-655 nm. Data was fitted with non-linear regression analysis, using a log(inhibitor) vs. response-variable slope, 3-parameter fit with GraphPad Prism.

human TLR4 = molecular target: T2, human TLR4 (Homo sapiens, UniProt O00206+Q9Y6Y9)
T2 construct: host or cells: HEK293
T2 sequence (O00206 24-839): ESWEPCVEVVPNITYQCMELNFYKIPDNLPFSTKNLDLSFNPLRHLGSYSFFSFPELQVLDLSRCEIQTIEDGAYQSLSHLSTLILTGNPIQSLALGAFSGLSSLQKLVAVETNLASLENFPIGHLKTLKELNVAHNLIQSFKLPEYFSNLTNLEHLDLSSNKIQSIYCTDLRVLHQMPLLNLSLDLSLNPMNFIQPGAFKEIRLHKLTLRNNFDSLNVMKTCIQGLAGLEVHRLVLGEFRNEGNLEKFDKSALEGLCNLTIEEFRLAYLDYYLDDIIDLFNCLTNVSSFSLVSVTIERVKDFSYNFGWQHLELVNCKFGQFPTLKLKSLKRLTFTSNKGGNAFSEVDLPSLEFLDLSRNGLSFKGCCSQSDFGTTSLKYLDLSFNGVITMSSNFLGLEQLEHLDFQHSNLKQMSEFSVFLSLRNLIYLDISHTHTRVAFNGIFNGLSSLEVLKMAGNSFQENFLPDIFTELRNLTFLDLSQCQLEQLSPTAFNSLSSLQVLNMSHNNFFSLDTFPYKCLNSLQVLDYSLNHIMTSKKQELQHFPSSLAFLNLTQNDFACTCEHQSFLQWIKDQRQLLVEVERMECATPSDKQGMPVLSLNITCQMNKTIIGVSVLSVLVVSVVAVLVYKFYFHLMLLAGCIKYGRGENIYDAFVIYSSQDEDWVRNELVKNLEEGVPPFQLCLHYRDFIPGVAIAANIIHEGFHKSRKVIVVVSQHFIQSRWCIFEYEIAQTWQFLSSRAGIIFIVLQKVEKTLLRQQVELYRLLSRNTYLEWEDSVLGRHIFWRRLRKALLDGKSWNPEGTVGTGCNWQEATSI
T2 sequence (Q9Y6Y9 17-160 limits assumed): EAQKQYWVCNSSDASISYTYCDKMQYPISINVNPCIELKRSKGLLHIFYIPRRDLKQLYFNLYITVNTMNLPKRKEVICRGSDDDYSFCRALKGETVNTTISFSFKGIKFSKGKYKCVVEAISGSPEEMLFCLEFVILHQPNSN
From the text: as §1, §2

human TLR5 = molecular target: T3, human TLR5 (Homo sapiens, UniProt O60602)
T3 construct: host or cells: HEK293
T3 sequence (O60602 21-858): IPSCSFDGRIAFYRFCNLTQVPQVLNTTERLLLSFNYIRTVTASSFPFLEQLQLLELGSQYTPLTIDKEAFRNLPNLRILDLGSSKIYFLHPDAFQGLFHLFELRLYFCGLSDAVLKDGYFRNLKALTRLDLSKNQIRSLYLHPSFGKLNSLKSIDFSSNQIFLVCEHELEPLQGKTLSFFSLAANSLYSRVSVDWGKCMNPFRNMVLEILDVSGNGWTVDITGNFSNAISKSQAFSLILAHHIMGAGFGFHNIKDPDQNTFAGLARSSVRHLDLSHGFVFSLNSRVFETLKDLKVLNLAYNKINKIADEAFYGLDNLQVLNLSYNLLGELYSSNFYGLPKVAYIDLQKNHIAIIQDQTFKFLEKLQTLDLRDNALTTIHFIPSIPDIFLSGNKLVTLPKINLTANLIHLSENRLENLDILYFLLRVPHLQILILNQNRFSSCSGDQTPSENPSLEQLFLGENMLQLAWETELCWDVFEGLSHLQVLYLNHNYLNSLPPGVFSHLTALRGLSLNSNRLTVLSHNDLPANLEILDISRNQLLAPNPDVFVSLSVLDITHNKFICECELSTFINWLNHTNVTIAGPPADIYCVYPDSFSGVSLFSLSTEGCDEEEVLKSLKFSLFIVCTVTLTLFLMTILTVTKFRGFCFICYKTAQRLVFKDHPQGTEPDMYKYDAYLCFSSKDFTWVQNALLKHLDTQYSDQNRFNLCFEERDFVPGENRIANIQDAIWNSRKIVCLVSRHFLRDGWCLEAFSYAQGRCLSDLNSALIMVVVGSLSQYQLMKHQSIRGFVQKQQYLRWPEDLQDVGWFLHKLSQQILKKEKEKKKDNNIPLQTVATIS
From the text: as §1, §2

mouse TLR3 = molecular target: T4, mouse TLR3 (Mus musculus, UniProt Q99MB1)
T4 construct: host or cells: HEK293
T4 sequence (Q99MB1 26-905): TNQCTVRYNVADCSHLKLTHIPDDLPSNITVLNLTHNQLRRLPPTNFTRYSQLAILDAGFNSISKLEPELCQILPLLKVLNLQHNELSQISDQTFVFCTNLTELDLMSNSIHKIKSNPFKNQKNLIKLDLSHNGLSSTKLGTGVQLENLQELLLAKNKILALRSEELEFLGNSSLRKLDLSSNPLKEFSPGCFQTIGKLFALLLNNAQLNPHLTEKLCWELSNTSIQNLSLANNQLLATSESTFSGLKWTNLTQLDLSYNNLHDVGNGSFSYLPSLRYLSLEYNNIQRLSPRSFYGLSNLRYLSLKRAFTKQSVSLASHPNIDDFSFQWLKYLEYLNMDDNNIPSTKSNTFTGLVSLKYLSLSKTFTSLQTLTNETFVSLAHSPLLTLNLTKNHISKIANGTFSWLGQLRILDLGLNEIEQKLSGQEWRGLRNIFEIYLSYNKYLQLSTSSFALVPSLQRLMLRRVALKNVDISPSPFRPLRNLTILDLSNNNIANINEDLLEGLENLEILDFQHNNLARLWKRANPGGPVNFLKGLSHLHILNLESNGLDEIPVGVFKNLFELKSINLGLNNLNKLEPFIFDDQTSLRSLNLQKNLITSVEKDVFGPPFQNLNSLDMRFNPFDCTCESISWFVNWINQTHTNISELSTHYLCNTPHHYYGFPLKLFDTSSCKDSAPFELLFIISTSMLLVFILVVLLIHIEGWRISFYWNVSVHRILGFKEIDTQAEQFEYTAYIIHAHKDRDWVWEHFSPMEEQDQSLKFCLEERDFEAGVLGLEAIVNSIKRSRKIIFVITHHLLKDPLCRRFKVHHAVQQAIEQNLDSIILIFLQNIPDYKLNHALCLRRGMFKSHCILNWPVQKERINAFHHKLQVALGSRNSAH
From the text: as §1, §2

Measured: EC50

CCCCc1nc2c(N)nc3ccccc3c2n1Cc1ccc(CN)cc1 [Compound A, reference compound]
> 1 µM: all assays above

CCCCn1nc2c(N)nc3ccccc3c2c1Cc1ccc(CN)cc1 [Compound 1, 1-(4-(aminomethyl)benzyl)-2-butyl-2H-pyrazolo[3,4-c]quinolin-4-amine]
> 1 µM: all assays above
